Common to all, as to settings: synthetic library passage 3, intravenous, relative to wild-type AAV9
The test system of experiment [1] is brain. Description: NGS fold enrichment of synthetic library (passage 3) in C57Bl/6 mice, first cross-species screen. Type of experiment: in vivo. The method in brief:
(§1)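 Synthetic capsid library (passage 3) was given intravenously […] to NHPs aged 2-4 years and to BALB/c and C57Bl/6 mice (n=3 each, 6-8 weeks). After about 28 days in vivo, tissue RNA was RT-PCR amplified and NGS-sequenced; values are fold enrichment per variant relative to wild-type AAV9.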

Experiment [2] concerns brain. Description: NGS fold enrichment of synthetic library (passage 3) in BALB/c mice, first cross-species screen. The experiment is classed as in vivo. The essentials:
as §1

Experiment [3] concerns brain, spinal cord, and DRG of the NHPs. Nature of the experiment: NGS fold enrichment of synthetic library (passage 3) in NHPs, first cross-species screen. The experiment is classed as in vivo, cynomolgus macaques (Macaca fascicularis). The essentials:
as §1

Setting [4] is: RNA from brain of C57Bl/6 mice, NGS.
Where [5] appears, read: RNA from brain of BALB/c mice, NGS.
The mark [6] stands for this setting: RNA from spinal cord of NHPs, NGS.

Regarding GSGTLYPQSQNQQT, the “Fold enrichment over AAV9 in the brain of Mice (C57Bl/6)” value (shortened to “Fold enrichment over AAV9 … (C57Bl/6)”) in experiment [1] (RNA NGS, brain of C57Bl/6 mice) amounted to 0.324 fold. Further, the “Fold enrichment over AAV9 in the brain of Mice (BALB/c)” value (“Fold enrichment over AAV9 … (BALB/c)” for short) in experiment [2] (RNA NGS, brain of BALB/c mice) stood at 0.160 fold. Also, in experiment [3] (RNA NGS, brain of NHPs), the “Fold enrichment over AAV9 in the brain of NHPs” value came to 2.761 fold. Further, in experiment [3] (RNA NGS, spinal cord of NHPs), the “Fold enrichment over AAV9 in the spinal cord of NHPs” value stood at 5.558 fold.

As to GSGQYVHVSSNQQT, the “Fold enrichment over AAV9 … (C57Bl/6)” value in experiment [1] (setting [4]) was 0.739 fold. Also, the “Fold enrichment over AAV9 … (BALB/c)” value in experiment [2] (setting [5]) amounted to 0.366 fold. The “Fold enrichment over AAV9 in the brain of NHPs” value in experiment [3] (RNA from brain of NHPs, NGS) came to 1.137 fold. Further, the “Fold enrichment over AAV9 in the spinal cord of NHPs” value in experiment [3] (setting [6]) came out at 1.803 fold.

GSGYSMSQAQNQQT: in experiment [1] (RNA NGS, brain of C57Bl/6 mice), the “Fold enrichment over AAV9 … (C57Bl/6)” value is reported as 0.519 fold. Further, the “Fold enrichment over AAV9 … (BALB/c)” value in experiment [2] (RNA NGS, brain of BALB/c mice) worked out at 0.329 fold. Further, the “Fold enrichment over AAV9 in the brain of NHPs” value in experiment [3] (RNA NGS, brain of NHPs) amounted to 2.250 fold. In addition, the “Fold enrichment over AAV9 in the spinal cord of NHPs” value in experiment [3] (RNA NGS, spinal cord of NHPs) is on record as 4.479 fold.

Consider GSDQSKRGDSNQQT, for which the “Fold enrichment over AAV9 … (C57Bl/6)” value in experiment [1] (setting [4]) was 0.479 fold. Further, the “Fold enrichment over AAV9 … (BALB/c)” value in experiment [2] (setting [5]) was 0.267 fold. Also, the “Fold enrichment over AAV9 in the brain of NHPs” value in experiment [3] (RNA from brain of NHPs, NGS) came out at 1.225 fold. The “Fold enrichment over AAV9 in the spinal cord of NHPs” value in experiment [3] (setting [6]) stood at 0.639 fold.

Turning to GSGQPVLSISNQQT, the “Fold enrichment over AAV9 … (C57Bl/6)” value in experiment [1] (RNA NGS, brain of C57Bl/6 mice) came out at 0.390 fold. Also, in experiment [2] (RNA NGS, brain of BALB/c mice), the “Fold enrichment over AAV9 … (BALB/c)” value is 0.282 fold. For the same sequence, in experiment [3] (RNA NGS, brain of NHPs), the “Fold enrichment over AAV9 in the brain of NHPs” value is listed as 1.586 fold. For the same sequence, in experiment [3] (RNA NGS, spinal cord of NHPs), the “Fold enrichment over AAV9 in the spinal cord of NHPs” value is given as 2.695 fold.

Regarding GSSREFHSGQNQQT, the “Fold enrichment over AAV9 … (C57Bl/6)” value in experiment [1] (setting [4]) was 0.688 fold. Besides, the “Fold enrichment over AAV9 … (BALB/c)” value in experiment [2] (setting [5]) was 0.474 fold. Further, the “Fold enrichment over AAV9 in the brain of NHPs” value in experiment [3] (RNA from brain of NHPs, NGS) is recorded as 1.203 fold. The “Fold enrichment over AAV9 in the spinal cord of NHPs” value in experiment [3] (setting [6]) stood at 1.591 fold.

Take GSGQNQQKVSPLLT: the “Fold enrichment over AAV9 … (C57Bl/6)” value in experiment [1] (setting [4]) was found to be 0.755 fold. Also, in experiment [2] (setting [5]), the “Fold enrichment over AAV9 … (BALB/c)” value is on record as 0.806 fold. Moreover, the “Fold enrichment over AAV9 in the brain of NHPs” value in experiment [3] (RNA from brain of NHPs, NGS) is 1.314 fold. In experiment [3] (setting [6]), the “Fold enrichment over AAV9 in the spinal cord of NHPs” value worked out at 1.602 fold.

In the case of GSGQNQHSAPFNQT, the “Fold enrichment over AAV9 … (C57Bl/6)” value in experiment [1] (RNA NGS, brain of C57Bl/6 mice) stood at 0.759 fold. Also, in experiment [2] (RNA NGS, brain of BALB/c mice), the “Fold enrichment over AAV9 … (BALB/c)” value turned out to be 0.870 fold. For the same sequence, the “Fold enrichment over AAV9 in the brain of NHPs” value in experiment [3] (RNA NGS, brain of NHPs) is on record as 1.969 fold. In addition, the “Fold enrichment over AAV9 in the spinal cord of NHPs” value in experiment [3] (RNA NGS, spinal cord of NHPs) worked out at 0.499 fold.

With GVVRNHQSGQNQQT, the “Fold enrichment over AAV9 … (C57Bl/6)” value in experiment [1] (RNA NGS, brain of C57Bl/6 mice) was 0.899 fold. Moreover, the “Fold enrichment over AAV9 … (BALB/c)” value in experiment [2] (RNA NGS, brain of BALB/c mice) amounted to 0.868 fold. Also, the “Fold enrichment over AAV9 in the brain of NHPs” value in experiment [3] (RNA NGS, brain of NHPs) is reported as 1.116 fold. Also, in experiment [3] (RNA NGS, spinal cord of NHPs), the “Fold enrichment over AAV9 in the spinal cord of NHPs” value is listed as 5.801 fold.

Turning to GGTRVVDSGQNQQT, the “Fold enrichment over AAV9 … (C57Bl/6)” value in experiment [1] (RNA NGS, brain of C57Bl/6 mice) was 0.676 fold. For the same sequence, the “Fold enrichment over AAV9 … (BALB/c)” value in experiment [2] (RNA NGS, brain of BALB/c mice) stood at 0.370 fold. Besides, the “Fold enrichment over AAV9 in the brain of NHPs” value in experiment [3] (RNA NGS, brain of NHPs) was 1.676 fold. For the same sequence, the “Fold enrichment over AAV9 in the spinal cord of NHPs” value in experiment [3] (RNA NGS, spinal cord of NHPs) is 9.735 fold.

Regarding GSGQSHRQPENQQT, the “Fold enrichment over AAV9 … (C57Bl/6)” value in experiment [1] (RNA NGS, brain of C57Bl/6 mice) is on record as 0.209 fold. In addition, in experiment [2] (RNA NGS, brain of BALB/c mice), the “Fold enrichment over AAV9 … (BALB/c)” value came out at 0.159 fold. Further, in experiment [3] (RNA NGS, brain of NHPs), the “Fold enrichment over AAV9 in the brain of NHPs” value was determined as 1.529 fold. For the same sequence, the “Fold enrichment over AAV9 in the spinal cord of NHPs” value in experiment [3] (RNA NGS, spinal cord of NHPs) came out at 2.153 fold.

On to GSGLTLSATQNQQT, for which, in experiment [1] (RNA NGS, brain of C57Bl/6 mice), the “Fold enrichment over AAV9 … (C57Bl/6)” value worked out at 0.708 fold. In addition, the “Fold enrichment over AAV9 … (BALB/c)” value in experiment [2] (RNA NGS, brain of BALB/c mice) was 0.340 fold. Moreover, the “Fold enrichment over AAV9 in the brain of NHPs” value in experiment [3] (RNA NGS, brain of NHPs) was 1.901 fold. The “Fold enrichment over AAV9 in the spinal cord of NHPs” value in experiment [3] (RNA NGS, spinal cord of NHPs) turned out to be 0.193 fold.

Turning to GTDFGRQSSQNQQT, the “Fold enrichment over AAV9 … (C57Bl/6)” value in experiment [1] (RNA NGS, brain of C57Bl/6 mice) is 1.021 fold. Further, the “Fold enrichment over AAV9 … (BALB/c)” value in experiment [2] (RNA NGS, brain of BALB/c mice) came out at 0.797 fold. Besides, the “Fold enrichment over AAV9 in the brain of NHPs” value in experiment [3] (RNA NGS, brain of NHPs) came out at 2.346 fold. Also, the “Fold enrichment over AAV9 in the spinal cord of NHPs” value in experiment [3] (RNA NGS, spinal cord of NHPs) is reported as 3.196 fold.

GSGSNMRLSQNQQT: in experiment [1] (setting [4]), the “Fold enrichment over AAV9 … (C57Bl/6)” value is reported as 0.962 fold. Besides, in experiment [2] (setting [5]), the “Fold enrichment over AAV9 … (BALB/c)” value was found to be 0.730 fold. The “Fold enrichment over AAV9 in the brain of NHPs” value in experiment [3] (RNA from brain of NHPs, NGS) is given as 1.363 fold. Besides, the “Fold enrichment over AAV9 in the spinal cord of NHPs” value in experiment [3] (setting [6]) is 0.588 fold.

Values taken from patent US20260250318A1, “COMPOSITIONS AND METHODS FOR CROSSING THE BLOOD BRAIN BARRIER” (VOYAGER THERAPEUTICS, INC., priority 2022, published 2026).
